Source: PubChem BioAssay AID324 (DTP/NCI, 2004)
Values joined by “and” are separate entries in the source; they are usually repeats but may differ in a detail not shown here. Identical values can stand only once. Toxic doses and inconclusive results are not listed.

Test system: CD2F1 mice, AMSA-resistant P388 leukemia ip, median survival T/C
Test: NCI In Vivo Anticancer Drug Screen. Data for tumor model P388 Leukemia resistant to AMSA; NSC 249992 (intraperitoneal) in CD2F1 (CDF1) mice
Settings: endpoint: median survival time, higher = longer survival
Description: The antitumor activity of compounds was measured in mice bearing transplantable tumors. Survival or tumor size were measured and the results are expressed as the measurement made in the treated group (T) divided by the measurement made in the vehicle treated control group (C). The tumor model used in this assay is P388 Leukemia resistant to AMSA; NSC 249992 (intraperitoneal) in CD2F1 (CDF1) mice

[1] = dose: 0.13 mg/kg/injection, schedule: Q04DX003 (ip), vehicle: water
[2] = dose: 0.21 mg/kg/injection, schedule: Q04DX003 (ip), vehicle: water
[3] = dose: 0.36 mg/kg/injection, schedule: Q04DX003 (ip), vehicle: water
[4] = dose: 0.6 mg/kg/injection, schedule: Q04DX003 (ip), vehicle: water
[5] = dose: 1.0 mg/kg/injection, schedule: Q04DX003 (ip), vehicle: water
[6] = dose: 0.97 mg/kg/injection, schedule: Q04DX003 (ip), vehicle: saline
[7] = dose: 1.62 mg/kg/injection, schedule: Q04DX003 (ip), vehicle: saline
[8] = dose: 4.5 mg/kg/injection, schedule: Q04DX003 (ip), vehicle: saline
[9] = dose: 0.64 mg/kg/injection, schedule: Q04DX003 (ip), vehicle: water
[10] = dose: 1.08 mg/kg/injection, schedule: Q04DX003 (ip), vehicle: water
[11] = dose: 5.0 mg/kg/injection, schedule: Q04DX003 (ip), vehicle: water

Structure (SMILES): CO[C@H]1C[C@](C)(O)Cc2cc3c(c(O)c21)C(=O)c1c(O)cc2c(c1C3=O)O[C@@H]1O[C@@]2(C)[C@H](O)[C@@H](N(C)C)[C@@H]1O
- T/C (dose: 6.48 mg/kg/injection, schedule: Q04DX003 (ip), vehicle: other): 111 % of control
- T/C (dose: 10.8 mg/kg/injection, schedule: Q04DX003 (ip), vehicle: other): 114 % of control
- T/C (dose: 18.0 mg/kg/injection, schedule: Q04DX003 (ip), vehicle: other): 110 % of control
- T/C (dose: 30.0 mg/kg/injection, schedule: Q04DX003 (ip), vehicle: other): 102 % of control

Structure (SMILES): CC(=O)[C@]1(O)Cc2c(O)c3c(c(O)c2[C@@H](OC2CC(N)C(O)C(C)O2)C1)C(=O)c1c(O)cccc1C3=O (stereo partly specified)
- T/C [1]: 122 % of control
- T/C [2]: 115 % of control
- T/C [3]: 109 % of control
- T/C [4]: 124 % of control
- T/C [5]: 97 % of control

Structure (SMILES): CN(Cc1cnc2nc(N)nc(N)c2n1)c1ccc(C(=O)N[C@@H](CCC(=O)O)C(=O)O)cc1
- T/C (dose: 3.0 mg/kg/injection, schedule: Q01DX005 (ip), vehicle: sodium bicarbonate): 173 % of control
- T/C (dose: 3.5 mg/kg/injection, schedule: Q01DX005 (ip), vehicle: sodium bicarbonate): 171 % of control
- T/C (dose: 4.0 mg/kg/injection, schedule: Q01DX005 (ip), vehicle: sodium bicarbonate): 164 % of control
- T/C (dose: 4.5 mg/kg/injection, schedule: Q01DX005 (ip), vehicle: sodium bicarbonate): 177 % of control
- T/C (dose: 6.48 mg/kg/injection, schedule: Q04DX003 (ip), vehicle: sodium bicarbonate): 165 % of control
- T/C (dose: 10.8 mg/kg/injection, schedule: Q04DX003 (ip), vehicle: sodium bicarbonate): 180 % of control
- T/C (dose: 18.0 mg/kg/injection, schedule: Q04DX003 (ip), vehicle: sodium bicarbonate): 196 % of control
- T/C (dose: 30.0 mg/kg/injection, schedule: Q04DX003 (ip), vehicle: sodium bicarbonate): 114 % of control
- T/C (dose: 50.0 mg/kg/injection, schedule: Q04DX003 (ip), vehicle: sodium bicarbonate): 98 % of control

Structure (SMILES): CN(C)c1ccc(Nc2c3ccccc3nc3ccccc23)cc1
- T/C (dose: 13.0 mg/kg/injection, schedule: Q04DX003 (ip), vehicle: saline with Tween-80): 100 % of control
- T/C (dose: 21.6 mg/kg/injection, schedule: Q04DX003 (ip), vehicle: saline with Tween-80): 98 % of control
- T/C (dose: 25.9 mg/kg/injection, schedule: Q04DX003 (ip), vehicle: saline): 101 % of control
- T/C (dose: 36.0 mg/kg/injection, schedule: Q04DX003 (ip), vehicle: saline with Tween-80): 96 % of control
- T/C (dose: 43.2 mg/kg/injection, schedule: Q04DX003 (ip), vehicle: saline): 104 % of control
- T/C (dose: 60.0 mg/kg/injection, schedule: Q04DX003 (ip), vehicle: saline with Tween-80): 100 % of control
- T/C (dose: 72.0 mg/kg/injection, schedule: Q04DX003 (ip), vehicle: saline): 100 % of control
- T/C (dose: 100.0 mg/kg/injection, schedule: Q04DX003 (ip), vehicle: saline with Tween-80): 103 % of control

Structure (SMILES): COc1cc(NS(C)(=O)=O)ccc1Nc1c2ccccc2nc2cc(C(F)(F)F)c(N)cc12
- T/C (dose: 13.0 mg/kg/injection, schedule: Q04DX003 (ip), vehicle: distilled water + Tween-80): 106 % of control
- T/C (dose: 21.6 mg/kg/injection, schedule: Q04DX003 (ip), vehicle: distilled water + Tween-80): 103 % of control
- T/C (dose: 36.0 mg/kg/injection, schedule: Q04DX003 (ip), vehicle: distilled water + Tween-80): 104 % of control
- T/C (dose: 60.0 mg/kg/injection, schedule: Q04DX003 (ip), vehicle: distilled water + Tween-80): 108 % of control
- T/C (dose: 64.8 mg/kg/injection, schedule: Q04DX002 (ip), vehicle: water): 114 % of control
- T/C (dose: 100.0 mg/kg/injection, schedule: Q04DX003 (ip), vehicle: distilled water + Tween-80): 103 % of control

Structure (SMILES): CCN(CC)C1CC(O[C@H]2C[C@](O)(C(C)=O)Cc3c(O)c4c(c(O)c32)C(=O)c2c(OC)cccc2C4=O)OC(C)C1O (stereo partly specified)
- T/C (dose: 4.32 mg/kg/injection, schedule: Q04DX003 (ip), vehicle: water): 117 % of control
- T/C (dose: 20.0 mg/kg/injection, schedule: Q04DX003 (ip), vehicle: water): 166 % of control

Structure (SMILES): COc1cccc2c1C(=O)c1c(O)c3c(c(O)c1C2=O)C[C@@](O)(C(=O)CO)C[C@@H]3OC1CC(N)C(O)C(C)O1 (stereo partly specified)
- T/C [6]: 118 % of control and 124 % of control
- T/C (dose: 1.3 mg/kg/injection, schedule: Q04DX002 (ip), vehicle: saline): 109 % of control and 86 % of control
- T/C [7]: 121 % of control
- T/C (dose: 2.16 mg/kg/injection, schedule: Q04DX002 (ip), vehicle: saline): 104 % of control
- T/C (dose: 2.7 mg/kg/injection, schedule: Q04DX003 (ip), vehicle: saline): 122 % of control
- T/C [8]: 152 % of control
- T/C (dose: 6.0 mg/kg/injection, schedule: Q04DX002 (ip), vehicle: saline): 90 % of control

Structure (SMILES): CCCCC(=O)OCC(=O)[C@]1(O)Cc2c(O)c3c(c(O)c2[C@@H](OC2CC(NC(=O)C(F)(F)F)C(O)C(C)O2)C1)C(=O)c1c(OC)cccc1C3=O (stereo partly specified)
- T/C (dose: 19.4 mg/kg/injection, schedule: Q04DX003 (ip), vehicle: clinical formulation): 106 % of control
- T/C (dose: 32.4 mg/kg/injection, schedule: Q04DX003 (ip), vehicle: clinical formulation): 117 % of control
- T/C (dose: 54.0 mg/kg/injection, schedule: Q04DX003 (ip), vehicle: clinical formulation): 120 % of control
- T/C (dose: 90.0 mg/kg/injection, schedule: Q04DX003 (ip), vehicle: clinical formulation): 113 % of control

Structure (SMILES): COc1cccc2c1C(=O)c1c(O)c3c(c(O)c1C2=O)C[C@@](O)(C(=O)CO)C[C@@H]3OC1CC(NCc2ccccc2)C(O)C(C)O1 (stereo partly specified)
- T/C (dose: 3.89 mg/kg/injection, schedule: Q04DX003 (ip), vehicle: water): 123 % of control
- T/C (dose: 30.0 mg/kg/injection, schedule: Q04DX003 (ip), vehicle: water): 100 % of control

Structure (SMILES): CC(=O)C1(O)Cc2c(O)c3c(c(O)c2C(OC2CC(N)C(O)C(C)O2)C1)C(=O)c1ccccc1C3=O (stereo unspecified)
- T/C [1]: 111 % of control
- T/C [2]: 122 % of control
- T/C [3]: 124 % of control
- T/C [4]: 105 % of control

Structure (SMILES): CC(=O)N(C)c1ccc(Nc2cc(C)[nH]c3ccc4ncnc4c23)cc1
- T/C (dose: 19.4 mg/kg/injection, schedule: Q04DX002 (ip), vehicle: saline): 101 % of control
- T/C (dose: 20.7 mg/kg/injection, schedule: Q04DX002 (ip), vehicle: saline): 104 % of control
- T/C (dose: 32.4 mg/kg/injection, schedule: Q04DX002 (ip), vehicle: saline): 100 % of control
- T/C (dose: 34.6 mg/kg/injection, schedule: Q04DX002 (ip), vehicle: saline): 112 % of control
- T/C (dose: 54.0 mg/kg/injection, schedule: Q04DX002 (ip), vehicle: saline): 119 % of control
- T/C (dose: 57.6 mg/kg/injection, schedule: Q04DX002 (ip), vehicle: saline): 117 % of control
- T/C (dose: 90.0 mg/kg/injection, schedule: Q04DX002 (ip), vehicle: saline): 113 % of control
- T/C (dose: 96.0 mg/kg/injection, schedule: Q04DX002 (ip), vehicle: saline): 109 % of control

Structure (SMILES): COc1cccc2c1C(=O)c1c(O)c3c(c(O)c1C2=O)C[C@@](O)(C(C)=O)C[C@@H]3OC1CC(N)C(O)C(C)O1 (stereo partly specified)
- T/C [9]: 115 % of control
- T/C (dose: 0.65 mg/kg/injection, schedule: Q04DX003 (ip), vehicle: saline): 103 % of control
- T/C [6]: 121 % of control
- T/C (dose: 1.08 mg/kg/injection, schedule: Q04DX003 (ip), vehicle: saline): 115 % of control
- T/C [10]: 118 % of control
- T/C [7]: 123 % of control
- T/C (dose: 1.8 mg/kg/injection, schedule: Q04DX003 (ip), vehicle: saline): 124 % of control
- T/C (dose: 3.0 mg/kg/injection, schedule: Q04DX003 (ip), vehicle: saline): 117 % of control
- T/C (dose: 3.0 mg/kg/injection, schedule: Q04DX003 (ip), vehicle: water): 123 % of control
- T/C [8]: 119 % of control
- T/C [11]: 123 % of control

Structure (SMILES): CC1OC(OC2CC(O)(C(=O)CO)Cc3c(O)c4c(c(O)c32)C(=O)c2ccccc2C4=O)CC(N)C1O (stereo unspecified)
- T/C [1]: 114 % of control
- T/C [2]: 115 % of control
- T/C [4]: 117 % of control
- T/C [5]: 123 % of control

Structure (SMILES): CCC1(O)CC(OC2CC(N(C)C)C(OC3CC4OC5CC(=O)C(C)OC5OC4C(C)O3)C(C)O2)c2c(cc3c(c2O)C(=O)c2c(O)ccc(O)c2C3=O)C1C(=O)OC (stereo unspecified)
- T/C [9]: 108 % of control
- T/C (dose: 0.86 mg/kg/injection, schedule: Q04DX003 (ip), vehicle: water): 112 % of control
- T/C [10]: 107 % of control
- T/C (dose: 1.44 mg/kg/injection, schedule: Q04DX003 (ip), vehicle: water): 115 % of control
- T/C (dose: 1.8 mg/kg/injection, schedule: Q04DX003 (ip), vehicle: water): 117 % of control
- T/C (dose: 2.4 mg/kg/injection, schedule: Q04DX003 (ip), vehicle: water): 124 % of control
- T/C [11]: 113 % of control
